Source: patent US7615555B2, “Piperidine derivatives as modulators of chemokine receptor CCR5” (AstraZeneca AB, priority 2004, dated 2009)

Legend:
[1] = target: recombinant human CCR5 receptor (Homo sapiens, UniProt P51681); test: in vitro radioligand binding assay: inhibition of MIP-1α binding; details: displacement of 0.1 nM iodinated MIP-1α; membranes from Chinese hamster ovary cells expressing recombinant human CCR5; scintillation proximity; average if tested more than once
Protocol: The ability of compounds to inhibit the binding of MIP-1α was assessed by an in vitro radioligand binding assay. Membranes were prepared from Chinese hamster ovary cells which expressed the recombinant human CCR5 receptor. These membranes were incubated with 0.1 nM iodinated MIP-1α, scintillation proximity beads and various concentrations of the compounds of the invention in 96-well plates. The amount of iodinated MIP-1α bound to the receptor was determined by scintillation counting. Competition curves were obtained for compounds and the concentration of compound which displaced 50% of bound iodinated MIP-1α was calculated (IC50).
In Table XII the results are presented as Pic50 values. A Pic50 value is the negative log (to base 10) of the IC50 result, so an IC50 of 1 μM (that is 1×10^−6M) gives a Pic50 of 6. If a compound was tested more than once then the data below is an average of the probative tests results.

Sequence of recombinant human CCR5 receptor (P51681 whole entry): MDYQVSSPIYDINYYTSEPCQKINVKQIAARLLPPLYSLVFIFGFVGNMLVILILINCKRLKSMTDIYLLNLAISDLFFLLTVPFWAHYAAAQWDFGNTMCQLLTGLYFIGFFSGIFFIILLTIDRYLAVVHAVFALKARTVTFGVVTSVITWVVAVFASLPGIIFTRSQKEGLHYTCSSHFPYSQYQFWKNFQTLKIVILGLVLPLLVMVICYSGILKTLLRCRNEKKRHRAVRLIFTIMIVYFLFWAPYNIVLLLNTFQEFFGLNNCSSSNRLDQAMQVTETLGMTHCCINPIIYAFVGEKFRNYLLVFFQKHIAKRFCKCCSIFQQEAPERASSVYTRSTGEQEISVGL

IC50 [1] | melting point | Compound
0.0316 µM |  | Cc1nnc(C(C)C)n1C1CCN(CC[C@@H](c2ccccc2)N2CCN(S(=O)(=O)c3ccccc3)CC2)CC1 [Table II Compound 1, 1-{(1S)-3-[4-(3-isopropyl-5-methyl-4H-1,2,4-triazol-4-yl)piperidin-1-yl]-1-phenylpropyl}-4-(phenylsulfonyl)piperazine]
0.251 µM |  | CCS(=O)(=O)N1CCN(C(CCN2CCC(n3cnc4cc(S(C)(=O)=O)ccc43)CC2)c2ccccc2)CC1 (stereo not shown) [Table I Compound 1, 1-(1-{3-[4-(ethylsulfonyl)piperazin-1-yl]-3-phenylpropyl}piperidin-4-yl)-5-(methylsulfonyl)-1H-benzimidazole]
0.000501 µM | 161 °C | CS(=O)(=O)c1ccc2c(c1)ncn2C1CCN(CC[C@@H](c2cc(F)cc(F)c2)C2CCN(S(C)(=O)=O)CC2)CC1 [Table II Compound 5, 1-(1-{(3R)-3-(3,5-difluorophenyl)-3-[1-(methylsulfonyl)piperidin-4-yl]propyl}piperidin-4-yl)-5-(methylsulfonyl)-1H-benzimidazole]
